Assays:
THRβ [1] = biological target: T1, THRβ (Homo sapiens, UniProt P10828); experiment: Reporter gene (GAL4-THRβ-LBD / Dual-Glo luciferase) agonist activity assay in HEK293T cells; type: cell-based; settings: ratio of reporter gene EC50 values THRα/THRβ
T1 construct: expressed in transfected cells; host or cells: HEK293T
T1 sequence (P10828 217-461): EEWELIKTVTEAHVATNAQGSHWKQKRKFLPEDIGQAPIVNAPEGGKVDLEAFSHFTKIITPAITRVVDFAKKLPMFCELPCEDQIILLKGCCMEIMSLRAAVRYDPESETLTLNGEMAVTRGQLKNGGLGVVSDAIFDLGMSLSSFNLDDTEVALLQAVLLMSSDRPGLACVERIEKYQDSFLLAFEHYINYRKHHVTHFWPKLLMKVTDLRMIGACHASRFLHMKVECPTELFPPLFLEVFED
Description: Experimental Example 1: Detection of THRα and THRβ Agonist Activities of Compounds Based on Reporter Gene Activity Assay Method
1.1 Construction and Preparation of Plasmids pGAL4-THR-LBD and pG5-Luc
The pGAL4-THRα-LBD and pGAL4-THRβ-LBD plasmids used in the reporter gene assay system were constructed by a conventional molecular cloning method comprising the following main steps: the cDNA sequences of THRα (NM_003250) and THRβ (NM_000461) corresponding to the amino acid sequences of THRα (163-407AA) and THRβ (217-461AA) were inserted into the BamHI and NotI enzyme digestion sites of the pGAL4 vector by the PCR technique respectively to obtain the pGAL4-THRα-LBD and pGAL4-THRβ-LBD plasmids; the pG5-Luc (#E249A) and pRL-TK (#E2241) plasmids were purchased from Promega; the plasmids were transfected into the E. coli DH5α by the CaCl2 method, and after further culture and amplification, the plasmids were purified by Plasmid Extraction Kits (TIANGEN, #D107) to obtain the corresponding plasmid DNAs.
1.2 Co-Transfection of Plasmids into HEK293T Cells and Treatment with Compounds
The HEK293T cells were inoculated into a 96-well plate at a density of 1×10^4/well the day before plasmid transfection. Cell transfection was conducted according to the instructions of the transfection reagent FuGENE® HD (Promega, #E2311). The main steps were as follows: taking one well as an example here, the plasmids pGAL4-THRα-LBD or pGAL4-THRβ-LBD, pG5-Luc, and pRL-TK were added in the proportions of 20 ng, 50 ng, and 5 ng to 10 μL of Opti-MEM™ I medium (Gibco, #11058021) and mixed well; subsequently, 0.25 uL of FuGENE® HD was added, mixed well, and then left at room temperature for 5 min; afterwards, 10 μL of the mixture was added to the cell wells containing 100 μL of culture medium. After cell co-transfection for 6 h, the compound was diluted in a 3-fold gradient with dimethyl sulfoxide at the highest concentration of 1 uM. The compound was added to the cell culture medium at a total of 10 concentrations for treatment for 24 h. There were a total of two duplicate wells for each concentration. Triiodothyronine (T3) was used as the positive control.
1.3 Dual-Glo Luciferase Assay
After the cells were treated with the compound for 24 h, the cells were assayed according to the instructions of Dual-Glo® Luciferase Assay System (Promega, #E2940). The main steps were as follows: 50 μL of culture medium was aspirated from each well and discarded, and then 50 μL of Dual-Glo® Luciferase reagent was added and oscillated at room temperature for 10 min; 80 μL of lysis reaction solution was measured into a white opaque optiPlate-96-well plate, and the luminescence signal value (Firefly-Luc) of the Firefly luciferase was detected using an MD i3x multi-mode microplate reader; 40 μL of Dual-Glo® Stop & Glo® reagent was then added, and oscillated at room temperature for 10 min; the luminescence signal value (Renilla-Luc) of the Renilla luciferase was then detected using an MD i3x multi-mode microplate reader. The Firefly-Luc/Renilla-Luc ratio was used as the activation activity of the compound against THR, and the ratio in the solvent DMSO group was used for normalization; the dose-response curve was fitted with four parameters using the GraphPad Prism6.0 software, and the EC50 value was calculated.

THRβ [2] = biological target: T2, THRβ (Homo sapiens, UniProt P10828); experiment: Time-resolved FRET (THR-FRET) agonist activity assay, GST-tagged THRβ LBD with SRC2 polypeptide; type: biochemical; settings: ratio of THR-FRET EC50 values THRα/THRβ
T2 construct: made in house; host or cells: E. coli BL21 (DE3)
T2 sequence (P10828 217-461 limits assumed): T1 sequence (P10828 217-461)
Description: Experimental Example 2: Detection of Agonist Activities of Compounds Against THRα/β Based on Time-Resolved Fluorescence Resonance Energy Transfer (THR-FRET)
By visiting NCBI, the THRα/β LBD domain sequences were found. The pET21-His-GST-dLBT-THRα LBD and pET21-His-GST-dLBT-THRβ LBD overexpression vectors were constructed by the fusion method, and sequenced to confirm the accuracy of the sequences.
The correctly sequenced THRα LBD and THRβ LBD overexpression vectors were transfected into E. coli cells BL21 (DE3), and spread on an agar plate with ampicillin. Monoclones were picked out and amplified in an LB medium, and transferred into 1 L LB at a ratio of 1:100 for large-scale culture. When the OD value was at 0.8 to 1.2, 0.5 mM isopropyl-beta-D-thiogalactopyranoside (IPTG) was added, and induced overnight at 18° C. The bacteria were harvested, disrupted, and purified via the GST column and the molecular sieve to obtain two proteins His-GST-dLBT-THRα LBD and His-GST-dLBT-THRβ LBD.
The proteins were taken out from a refrigerator at −80° C. The proteins with the GST-tagged THRα/β LBD domain and the Eu-labelled GST antibodies were thawed slowly on ice, and an assay buffer containing a final concentration of 5 mM dithiothreitol (DTT) was formulated.
The starting concentration of the compound was 100 μM (in DMSO). The compound (100 μM in DMSO) was subjected to 3-fold isogradient dilution with DMSO to obtain a total of 11 isogradient concentrations. Subsequently, the above compounds at the isogradient concentration were further subjected to 50-fold dilution with an assay buffer containing 5 mM DTT.
The final concentrations of all components were calculated based on a system with a final volume of 20 μL per well. To 18 μL of assay buffer containing 5 mM DTT, the GST-tagged THRα/β proteins, the SRC2 ([…]) polypeptide, XL665 (Cisobio, #610SAXLB), and the Eu-labeled GST antibody were added, and the final concentrations were 2 nM, 200 nM, 0.05 nM, and 7.6 nM respectively to formulate 18 μL of reaction mixture of the proteins, polypeptide, and antibody per well.
18 μL of reaction mixture and 2 μL of diluted compound were added into an optiplate-384-well plate, and reacted at room temperature for 24 h.
The plate was read using an MD i3X multi-mode microplate reader with the excitation and emission wavelengths of 340 nm and 665 nm, respectively. The intensity of light at a wavelength of 616 nm generated by europium excited by 340 nm wavelength light from the MD i3X multi-mode microplate reader was used as the background. According to the different activation degrees of different compounds against THRα and THRβ, the intensity of the emission light at a wavelength of 665 nm generated by exciting XL665 with the exciting light at a wavelength of 616 nm was varied. The intensity ratio between these two light wavelengths (665 nm, 616 nm) was used as the activation activity of the compound against THRα or THRβ, and the ratio in the solvent DMSO group was used for normalization. The dose-response curve was fitted with four parameters using the GraphPad Prism 6.0 software, and the EC50 value was calculated.

Row | Compound | Selectivity (THRα/THRβ) (THRβ [1]) | Selectivity (THRα/THRβ) (THRβ [2])
1 | CNC(=O)c1ccccc1OCc1c(Cl)cc(-n2nc(C(F)F)c(=O)[nH]c2=O)cc1Cl [Compound 53] | † (†: 5 ≥ THRα/β;) | †† (††: 10 ≥ THRα/β;)
2 | [2H]C([2H])([2H])NC(=O)c1ccccc1OCc1c(Br)cc(-n2nc(C(F)F)c(=O)[nH]c2=O)cc1Br [Compound 109] | † (†: 5 ≥ THRα/β;) | †† (††: 10 ≥ THRα/β;)
3 | CNC(=O)c1ccccc1OCc1c(Cl)cc(-n2ncc(=O)[nH]c2=O)cc1Cl [Compound 17] | † (†: 5 ≥ THRα/β;) | †† (††: 10 ≥ THRα/β;)
4 | NC(=O)c1ccccc1OCc1c(Br)cc(-n2ncc(=O)[nH]c2=O)cc1Br [Compound 38] | †† (††: 10 ≥ THRα/β > 5;) | †† (††: 10 ≥ THRα/β;)
5 | NC(=O)c1ccccc1OCc1c(Cl)cc(-n2nc(C(F)F)c(=O)[nH]c2=O)cc1Cl [Compound 54] | † (†: 5 ≥ THRα/β;) | †† (††: 10 ≥ THRα/β;)
6 | COc1ccc(OCc2c(Cl)cc(-n3ncc(=O)[nH]c3=O)cc2Cl)c(C(N)=O)c1 [Compound 69] | † (†: 5 ≥ THRα/β;) | ††† (†††: 20 ≥ THRα/β > 10;)
7 | [2H]C(Oc1ccccc1C(=O)NC([2H])([2H])[2H])c1c(Br)cc(-n2nc(C([2H])(F)F)c(=O)[nH]c2=O)cc1Br (centres unmarked) [Compound 113] | † (†: 5 ≥ THRα/β;) | †† (††: 10 ≥ THRα/β;)

From patent publication US20260048060A1, “POLYCYCLIC THYROID HORMONE b RECEPTOR AGONIST AND USE THEREOF” (CASCADE PHARMACEUTICALS, INC., priority 2022, published 2026)
